Source: patent US20170275287A1, “NOVEL N2, N4, N7, 6-TETRASUBSTITUTED PTERIDINE-2,4,7-TRIAMINE AND 2, 4, 6, 7-TETRASUBSTITUTED PTERIDINE COMPOUNDS AND METHODS OF SYNTHESIS AND USE THEREOF” (Janus Biotherapeutics, Inc., priority 2014, published 2017)
Like-named read-outs stand apart in the source and are kept apart here.

Legend:
LogD, pH 7.4 = type: physicochemical
P-glycoprotein = target: T1, P-glycoprotein (Homo sapiens, UniProt P08183); experiment: P-glycoprotein inhibition (CEREP); type: in vitro ADME
T1 construct: CEREP (contract laboratory)
T1 sequence (P08183 whole entry): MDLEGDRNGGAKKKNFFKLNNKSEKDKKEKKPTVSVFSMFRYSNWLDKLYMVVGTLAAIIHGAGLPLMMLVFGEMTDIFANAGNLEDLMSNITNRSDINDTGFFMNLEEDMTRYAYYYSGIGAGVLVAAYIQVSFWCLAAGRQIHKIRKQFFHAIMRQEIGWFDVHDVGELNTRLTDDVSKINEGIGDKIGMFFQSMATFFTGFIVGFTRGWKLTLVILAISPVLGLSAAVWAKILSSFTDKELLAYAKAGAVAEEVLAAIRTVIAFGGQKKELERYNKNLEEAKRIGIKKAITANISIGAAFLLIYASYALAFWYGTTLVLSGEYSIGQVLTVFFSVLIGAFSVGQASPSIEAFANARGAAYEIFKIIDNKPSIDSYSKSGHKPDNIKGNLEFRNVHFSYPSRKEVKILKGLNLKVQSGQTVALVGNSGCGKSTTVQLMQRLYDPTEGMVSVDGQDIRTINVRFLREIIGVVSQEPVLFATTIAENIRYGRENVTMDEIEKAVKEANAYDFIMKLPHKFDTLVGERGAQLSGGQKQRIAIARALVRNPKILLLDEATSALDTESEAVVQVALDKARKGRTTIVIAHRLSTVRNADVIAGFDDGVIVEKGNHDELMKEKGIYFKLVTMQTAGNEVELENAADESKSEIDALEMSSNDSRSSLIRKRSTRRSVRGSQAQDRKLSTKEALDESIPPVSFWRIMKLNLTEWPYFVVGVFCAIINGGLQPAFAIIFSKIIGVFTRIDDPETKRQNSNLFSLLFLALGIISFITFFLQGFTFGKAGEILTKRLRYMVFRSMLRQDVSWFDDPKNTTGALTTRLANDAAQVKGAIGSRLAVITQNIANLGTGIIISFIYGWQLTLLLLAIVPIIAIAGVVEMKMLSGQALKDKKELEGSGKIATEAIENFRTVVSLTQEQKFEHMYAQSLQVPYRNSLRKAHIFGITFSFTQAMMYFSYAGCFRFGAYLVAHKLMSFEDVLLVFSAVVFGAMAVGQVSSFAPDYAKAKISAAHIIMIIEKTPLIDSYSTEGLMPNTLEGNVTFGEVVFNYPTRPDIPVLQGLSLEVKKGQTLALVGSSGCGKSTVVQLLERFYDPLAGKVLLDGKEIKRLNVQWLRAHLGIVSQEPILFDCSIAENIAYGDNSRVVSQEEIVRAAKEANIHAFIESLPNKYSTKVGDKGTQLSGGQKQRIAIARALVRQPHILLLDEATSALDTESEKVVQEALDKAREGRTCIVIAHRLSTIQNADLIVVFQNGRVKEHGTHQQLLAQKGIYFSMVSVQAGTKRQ
Method: (§1) Preliminary screening measures were conducted by CEREP. All values fall within acceptable limits (Table 5). Solubility assays where performed by CEREP, Seattle, Wash., according to Lipinski, C. A. et al., 1997, Adv. Drug Del. Rev., 46:3-26. Protein binding assays where performed by CEREP, Seattle, Wash., according to Banker, M. J. et al., 2003, J. Pharm. Sci., 92:967-974. Permeability assays where performed by CEREP, Seattle, Wash. according to Hildalgo, I. J., 1998, Gastroenterology, 96:736-749. Metabolic stability assays where performed by CEREP, Seattle, Wash., according to Obach, R. S. et al., 1997, J. Pharmacol. Exp. Ther., 283:46-58. P-glycoprotein inhibition assays where performed by CEREP, Seattle, Wash., according to Polli, J. W. et al., 2001, J. Pharm. Exp. Ther., 299:620-628. Cell viability assays where performed by CEREP, Seattle, Wash., according to Mosmann, T., 1983, J. Immunol. Met. 65:55-62. hERG automated patch clamp assays where performed by CEREP, Seattle, Wash., according to Mathes, C., 2006, Expert Opin. Ther. Targets, 10:230-241.

[1] = Metabolic stability, human liver microsomes (CEREP); type: in vitro ADME
Method: as §1

hERG = target: T2, hERG (Homo sapiens, UniProt Q12809); experiment: hERG automated patch clamp (CEREP); type: cell-based
T2 construct: host or cells: CHO (Chinese hamster ovary)
T2 sequence (Q12809 whole entry): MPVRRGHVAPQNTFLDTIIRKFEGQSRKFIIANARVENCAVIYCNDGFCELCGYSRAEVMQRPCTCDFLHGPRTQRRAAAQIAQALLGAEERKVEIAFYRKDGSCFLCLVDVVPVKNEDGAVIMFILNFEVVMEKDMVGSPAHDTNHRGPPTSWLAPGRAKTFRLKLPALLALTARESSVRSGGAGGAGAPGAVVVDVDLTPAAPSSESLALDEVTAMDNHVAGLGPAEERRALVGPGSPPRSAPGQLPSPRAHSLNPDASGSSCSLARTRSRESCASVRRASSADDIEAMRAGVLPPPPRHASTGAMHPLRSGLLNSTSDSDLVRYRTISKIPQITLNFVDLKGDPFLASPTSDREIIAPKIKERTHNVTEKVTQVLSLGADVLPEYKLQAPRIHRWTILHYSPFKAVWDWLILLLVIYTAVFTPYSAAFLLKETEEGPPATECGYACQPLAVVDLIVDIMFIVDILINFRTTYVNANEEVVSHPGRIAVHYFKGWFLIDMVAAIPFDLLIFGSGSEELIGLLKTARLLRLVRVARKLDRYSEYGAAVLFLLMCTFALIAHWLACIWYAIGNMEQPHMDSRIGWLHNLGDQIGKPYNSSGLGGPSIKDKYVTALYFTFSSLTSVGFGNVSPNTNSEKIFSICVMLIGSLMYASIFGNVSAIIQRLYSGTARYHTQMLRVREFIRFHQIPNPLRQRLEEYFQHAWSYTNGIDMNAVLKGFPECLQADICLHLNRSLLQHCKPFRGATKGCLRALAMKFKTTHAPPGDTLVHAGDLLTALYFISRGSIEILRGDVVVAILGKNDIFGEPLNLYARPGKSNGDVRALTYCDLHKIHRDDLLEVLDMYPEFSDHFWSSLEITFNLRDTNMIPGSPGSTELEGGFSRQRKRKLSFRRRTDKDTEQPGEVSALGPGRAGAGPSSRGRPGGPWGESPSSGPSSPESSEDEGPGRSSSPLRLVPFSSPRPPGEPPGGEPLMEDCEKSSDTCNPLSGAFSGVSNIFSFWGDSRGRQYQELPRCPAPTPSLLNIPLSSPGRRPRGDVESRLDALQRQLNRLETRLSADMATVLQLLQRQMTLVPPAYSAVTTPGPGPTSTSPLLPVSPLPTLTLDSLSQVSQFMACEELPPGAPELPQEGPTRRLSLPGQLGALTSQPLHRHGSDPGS
Method: as §1

[2] = Toxicokinetics of the 7-day tox study; type: in vivo, rats; conditions: for increase in AUC0-24 h for a 10-fold increase in dose / increase in Cmax for a 10-fold increase in dose: 10 to 100 mg/kg; for AUC / half-life / Cmax / Tmax / clearance / Vd / bioavailability: rat; for half-life: read-out: T½ (converted); for Vd: read-out: Vdss; for bioavailability: read-out: calculated oral absolute bioavailability
Method: A 7-day non-GLP tox study was performed in rats. […] The following parameters and end points were evaluated in this study: clinical signs, body weights, body weight changes, food consumption, clinical pathology parameters (hematology, coagulation, clinical chemistry, and urinalysis), toxicokinetic parameters, gross necropsy findings, organ weights, and histopathologic examinations.
Clinical signs and body weight changes in the TK animals were generally similar to the main toxicology phase animals. Select toxicokinetic parameters from Days 1 and 7 are included below in Table 11.

[3] = all three oral doses, whole blood
[4] = female, whole blood, iv, 5 mg/kg, Day 1, 5 mg/kg I.V., Female
[5] = female, whole blood, po, 10 mg/kg, Day 1, 10 mg/kg oral, Female
[6] = female, whole blood, po, 10 mg/kg, Day 7, 10 mg/kg oral, Female
[7] = female, whole blood, po, 30 mg/kg, Day 1, 30 mg/kg oral, Female
[8] = female, whole blood, po, 30 mg/kg, Day 7, 30 mg/kg oral, Female
[9] = female, whole blood, po, 100 mg/kg, Day 1, 100 mg/kg oral, Female
[10] = female, whole blood, po, 100 mg/kg, Day 7, 100 mg/kg oral, Female
[11] = male, whole blood, iv, 5 mg/kg, Day 1, 5 mg/kg I.V., Male
[12] = male, whole blood, po, 10 mg/kg, Day 1, 10 mg/kg oral, Male
[13] = male, whole blood, po, 10 mg/kg, Day 7, 10 mg/kg oral, Male
[14] = male, whole blood, po, 30 mg/kg, Day 1, 30 mg/kg oral, Male
[15] = male, whole blood, po, 30 mg/kg, Day 7, 30 mg/kg oral, Male
[16] = male, whole blood, po, 100 mg/kg, Day 1, 100 mg/kg oral, Male
[17] = male, whole blood, po, 100 mg/kg, Day 7, 100 mg/kg oral, Male
[18] = whole blood, iv, Day 1, 5 mg/kg I.V., Female
[19] = whole blood, iv, Day 1, 5 mg/kg I.V., Male

## CN1CCN(c2nc(NCCN3CCOCC3)c3nc(Cl)c(NCCN4CCOCC4)nc3n2)CC1 [JB6121, 6-chloro-2-(4-methylpiperazin-1-yl)-N^4,N^7-bis(2-morpholinoethyl)pteridine-4,7-diamine]
LogD, pH 7.4
  logD: 0.995
P-glycoprotein
  inhibition at 100 µM: 1%
[1]
  Metabolic Stability, Human Liver Microsomes at 60 min. % remaining: 75%
hERG
  inhibition at 10 µM: 11%
[2]; 7 day toxicokinetics versus 24 h PK whole blood exposures
  7-day accumulation: approximately 2 fold
[2]; Day 1, 10 mg/kg oral, Female
  F (0-x): 8.10%
[2]; Day 1, 10 mg/kg oral, Male
  F (0-x): 13.3%
[2]; Day 1, 30 mg/kg oral, Female
  F (0-x): 37.2%
[2]; Day 1, 30 mg/kg oral, Male
  F (0-x): 28.0%
[2]; Day 1, 100 mg/kg oral, Female
  F (0-x): 91.0%
[2]; Day 1, 100 mg/kg oral, Male
  F (0-x): 78.5%
[2]; Day 1, female
  increase in AUC0-24 h for a 10-fold increase in dose: 113 fold
  increase in Cmax for a 10-fold increase in dose: 43 fold
[2]; Day 1, male
  increase in AUC0-24 h for a 10-fold increase in dose: 59 fold
  increase in Cmax for a 10-fold increase in dose: 32 fold
[2]; Day 7, female
  increase in AUC0-24 h for a 10-fold increase in dose: 38 fold
  increase in Cmax for a 10-fold increase in dose: 20 fold
[2]; Day 7, male
  increase in AUC0-24 h for a 10-fold increase in dose: 48 fold
  increase in Cmax for a 10-fold increase in dose: 24 fold
[2]; [3]
  average D7/D1 AUC0-24 h ratio: 2.79
  average D7/D1 Cmax ratio: 1.71
[2]; [4]
  AUC: 2210 ng·h/mL
  half-life: 10.8 h
[2]; [5]
  AUC: 357 ng·h/mL
  Cmax: 92 ng/mL
  Tmax: 3 h
  half-life: 5.43 h
[2]; [6]
  AUC: 2120 ng·h/mL
  Cmax: 260 ng/mL
  Tmax: 3 h
  half-life: 18.2 h
[2]; [7]
  AUC: 4920 ng·h/mL
  Cmax: 643 ng/mL
  Tmax: 3 h
  half-life: 8.8 h
[2]; [8]
  AUC: 8890 ng·h/mL
  Cmax: 639 ng/mL
  Tmax: 6 h
  half-life: 14.3 h
[2]; [9]
  AUC: 40300 ng·h/mL
  Cmax: 3980 ng/mL
  Tmax: 3 h
  half-life: 9.39 h
[2]; [10]
  AUC: 80200 ng·h/mL
  Cmax: 5310 ng/mL
  Tmax: 3 h
  half-life: 14.1 h
[2]; [11]
  AUC: 2790 ng·h/mL
  half-life: 10.2 h
[2]; [12]
  AUC: 743 ng·h/mL
  Cmax: 122 ng/mL
  Tmax: 3 h
  half-life: 14.1 h
[2]; [13]
  AUC: 1910 ng·h/mL
  Cmax: 181 ng/mL
  Tmax: 3 h
  half-life: 19.9 h
[2]; [14]
  AUC: 4700 ng·h/mL
  Cmax: 582 ng/mL
  Tmax: 3 h
  half-life: 9.39 h
[2]; [15]
  AUC: 11100 ng·h/mL
  Cmax: 805 ng/mL
  Tmax: 6 h
  half-life: 18.4 h
[2]; [16]
  AUC: 43800 ng·h/mL
  Cmax: 3950 ng/mL
  Tmax: 3 h
  half-life: 11.9 h
[2]; [17]
  AUC: 91200 ng·h/mL
  Cmax: 6280 ng/mL
  Tmax: 3 h
  half-life: 40.4 h
[2]; pooled 7-day exposure data, 0 to 30 mg/kg
  slope of Cmax versus dose: 28.24 ng/mL/mg/kg
[2]; [18]
  clearance: 31.5 mL/min/kg
  Vd: 23.1 L/kg
[2]; [19]
  clearance: 24.7 mL/min/kg
  Vd: 18.1 L/kg
[2]; whole blood, po, Day 1, 10 mg/kg
  bioavailability: 13.3%
[2]; whole blood, po, Day 1, 30 mg/kg
  bioavailability: 28%
[2]; whole blood, po, Day 1, 100 mg/kg
  bioavailability: 78.5%
